According to patent US20070254891A1, “Crystalline forms of 4-(2-fluorophenyl)-6-methyl-2-(piperazin-1-yl)thieno[2,3-d]pyrimidine” (Dynogen Pharmaceuticals, Inc., priority 2006, published 2007):
Where two headings read alike, the source gives them in different places.

Key:
Assay type in all cases: physicochemical
[1] = Accelerated light stability study (Atlas Suntest CPS+ light box)
Procedure: (§1) Purity analysis was performed on an Agilent HP1100 system equipped with a diode array detector and using Chemstation V9 software. Gradient, Reverse Phase methods (duration approximately 40 minutes) were used in a HPLC1 system. A Thermo-Electron Corporation HyPurity C18 5 um 150×4.6 mm column was used at 25° C. Test samples were made-up of 0.2 mg/ml of the compound in acetonitrile:water (1:1 v/v). 10 μl of sample was injected into the column. The flow rate through the column was 1 ml/min and the detection wavelength, bandwidth was 254,8 nm. Phase A was 0.1% phosphoric acid in water and Phase B was 0.1% phosphoric acid in acetonitrile. The mobile phase timetable is shown below in Table 2.
Accelerated Light stability experiments were conducted using an Atlas Suntest CPS+light box. The light exposure was set to 550 W/m^2 and the run time was set to 168 hours (1 week). The chamber temperature and black standard temperature (which indicates how hot the test samples will become) were set to 25° C. The actual temperature in the sample chamber was 40° C.
Form I and II were assessed using an Atlas Suntest CPS+ light box to determine the effect of their exposure to light over a period of 168 hours (1 week). The light exposure was set to 550 W/M^2. Samples were weighed into either open weighing boats covered by pyrex glass beakers, glass vials with open tops (no lid), or glass vials covered in Aluminum foil. In all instances, the material was spread out into an even, thin layer.

[2] = 10 week stability study at 40° C./75% RH and 60° C./75% RH, light and dark
Procedure: as §1
Samples of Form I and II were tested at 40° C./75% RH and 60° C./75% RH in both light and dark conditions for up to 10 weeks. As the samples were located in temperature/humidity control chambers, the exposure to light was limited to normal laboratory light conditions with artificial light and some winter daylight through the windows.
Approximately 100 mg of each sample was weighed into plastic weighing boats and spread out to form an even thin layer for each of the temperature/humidity/light conditions, as shown in Table 6. The dark samples were protected from exposure to light by wrapping them in aluminum foil. The foil was pierced to allow exposure to humidity.
Time points chosen for HPLC analysis during the stability study were T=0, 1, 2, 5 and 10 weeks. At 10 weeks, the samples were analyzed using XRPD, DSC and polarized light microscopy.

[3] = LogP / LogPion / LogD by potentiometric titration (octanol:ISA water)
Procedure: LogP was determined using a potentiometric titration on a Sirius GlpKa instrument using three ratios of Octanol:ISA water to generate Log P, Log Pion, and Log D values. The data was refined using Refinement Pro software version 1.0. Predictions of LogP were made using ACD Ver 8 and Syracuse KOWWIN Ver 1.67 software.

[4] = Gravimetric vapor sorption (GVS)
Procedure: GVS was used to determine the amount of water adsorbed by a sample. Briefly, samples were run on a Hiden IGASorp moisture sorption analyzer running CFRSorp software. Sample sizes were typically 10 mg. A moisture adsorption desorption isotherm was performed as outlined below in Table 3 (2 scans giving 1 complete cycle). Samples were loaded/unloaded at typical room humidity and temperature (40% RH, 25° C.). Samples were then analyzed by XRPD after GVS analysis, e.g., to determine whether any structural changes took place after adsorption of water. The standard isotherm was performed at 25° C. at 10% RH intervals over a 0-90% RH range.

[5] = Storage at 40° C./75% RH under ambient light (XRPD, HPLC purity, colour)
Procedure: as §1
Form I was characterized by pKa, LogP, LogPion and LogD determination and prediction, XRPD before and after storage at 40° C./75% RH for 4 weeks, PLM, DSC and TGA, ^1HNMR, solubility in water with pH measurement, HPLC purity before and after storage at 40° C./75% RH for 4 weeks, water content, GVS with XRPD and purity analysis after measurement, and VT-XRPD.
Form II has been characterized using XRPD before and after storage at 40° C./75% RH for 3 weeks, PLM, DSC and TGA, Solubility in water with pH measurement, HPLC purity, Water content, GVS with XRPD analysis after measurement, and VT-XRPD.

[6] = Aqueous solubility with pH measurement; settings: water; for solubility at 24 h: 25 °C, thermodynamic from solid
Procedure: Each sample was suspended in 0.25 ml of solvent (water) in an amount effective to produce a maximum final concentration of greater than or equal to about 10 mg/ml of the parent free form of the compound (i.e., adding excess sample to account for the weight of the salt). […] The filtrate was then diluted down 101 times.

[7] = pKa determination (Sirius GlpKa, potentiometric and UV)
Procedure: pKa was measured on a Sirius GlpKa instrument equipped with a D-PAS attachment. A UV measurement was taken when the sample was in an aqueous solution and a potentiometric was taken when the sample was in a MeOH:H2O mixture. Measurements were taken at 25° C. The titration media was ionic strength adjusted with 0.15M KCl. Values determined from potentiometric measurements in the MeOH:H2O mixtures were corrected to 0% co-solvent via a Yasuda-Shedlovsky extrapolation. The data was refined using Refinement Pro software version 1.0. Prediction of pKa values was made using ACD pKa prediction software Ver 8.

[8] = Variable temperature XRPD (VT-XRPD); settings: heating; irreversible; hydrochloride
Procedure: Samples run under ambient conditions were prepared as flat plate specimens using powder without grinding unless otherwise stated. Approximately 1-2 mg of the sample was lightly pressed on a glass slide to obtain a flat surface. Samples run under non-ambient conditions (VT-XRPD) were mounted on a silicon wafer with heat conducting compound. The sample was then heated to the appropriate temperature at about 20° C./minute and subsequently held isothermally for about 1 minute before data collection was initiated.
Three samples were studied using variable temperature XRPD (VT-XRPD): Form I as received, substantially pure Form I as prepared in Example 3, and substantially pure Form II as prepared in Example 3. VT-XRPD studies were initially carried out on substantially pure Form I as prepared in Example 3 with measurements at 25° C., 50° C., 80° C., 150° C., 220° C., 225° C., 250° C. and cooling to 29° C. Prior to measurement of the last XRPD pattern, the material was crushed due to the growth of large crystals. An overlay of the XRPD patterns can be found in FIG. 4A.
An experiment was also carried out on Form I as received, with measurements at 26° C., 50° C., 150° C., 200° C., 210° C., 220° C., 230° C. and cooling to 27° C. An overlay of the XRPD patterns can be found in FIG. 4B. […] (see peak at ˜14.7 2θ). […]

[9] = 4 weeks at 40° C./75% RH, ambient light

Cc1cc2c(-c3ccccc3F)nc(N3CCNCC3)nc2s1.Cl [Form I, 4-(2-fluorophenyl)-6-methyl-2-(piperazin-1-yl)thieno[2,3-d]pyrimidine hydrochloride]
Purity after 1 week light exposure ([1]; 20 ml glass vial covered in Al foil with loose lid (control)): 99.9 | Purity after 1 week light exposure ([1]; 20 ml glass vial, 550 W/m^2, 168 hours, hydrochloride): 77.8 | HPLC purity after accelerated light study ([1]; one week, FIGS. 6A/6B (open weighing boats), hydrochloride): 79.4% | Purity after 1 week light exposure ([1]; open weighing boat, 550 W/m^2, 168 hours, hydrochloride): 79.4 | Purity % ([2]; 40° C./75% RH, Dark, 1 week): 99.9% | Purity % ([2]; 40° C./75% RH, Dark, 2 weeks): 100% | Purity % ([2]; 40° C./75% RH, Dark, 5 weeks): 100% | Purity % ([2]; 40° C./75% RH, Dark, 10 weeks, hydrochloride): 99.9% | Purity % ([2]; 40° C./75% RH, Light, 1 week): 99.9% | Purity % ([2]; 40° C./75% RH, Light, 2 weeks): 100% | Purity % ([2]; 40° C./75% RH, Light, 5 weeks, hydrochloride): 99.8% | Purity % ([2]; 40° C./75% RH, Light, 10 weeks, hydrochloride): 99.4% | Purity % ([2]; 60° C./75% RH, Dark, 1 week): 99.9% | Purity % ([2]; 60° C./75% RH, Dark, 2 weeks, hydrochloride): 99.9% | Purity % ([2]; 60° C./75% RH, Dark, 5 weeks): 100% | Purity % ([2]; 60° C./75% RH, Dark, 10 weeks, hydrochloride): 100% | Purity % ([2]; 60° C./75% RH, Light, 1 week): 99.8% | Purity % ([2]; 60° C./75% RH, Light, 2 weeks, hydrochloride): 99.8% | Purity % ([2]; 60° C./75% RH, Light, 5 weeks, hydrochloride): 99.5% | Purity % ([2]; 60° C./75% RH, Light, 10 weeks, hydrochloride): 99.4% | Yellow coloration of the surface (visual inspection) ([2]; after 10 weeks, both storage conditions): greatest | Purity % ([2]; time point 0 weeks, hydrochloride): 100% | Stability as indicated by the HPLC data ([2]; up to 10 weeks, 40° C./75% RH and 60° C./75% RH): stable to ambient light levels as well as elevated temperature and humidity | LogPion ([3]; 0.15M KCl(Aq) / 1-octanol): 1.41 | logP ([3]; 1-octanol / 0.15M KCl (aq), 0.15M KCl(Aq) / 1-octanol): 3.96 | logD ([3]; octanol/ISA water, pH 7.4): 2.72 | XRPD reanalysis after GVS ([4]; after one adsorption/desorption cycle): did not show any change | GVS total weight increase ([4]; between 0 and 90% RH, single cycle, 25° C., hydrochloride): 5.0% | GVS weight increase ([4]; between 20% and 30% RH): about 4.8% | GVS weight increase, equivalent water ([4]; between 20% and 30% RH): 1.0 moles of water | Colour of material surface after storage [5, 9]: gone yellow | HPLC purity after storage [5, 9]: 99.0% | XRPD pattern after storage ([5]; 40° C./75% RH for four weeks): unchanged | pH of the solubility sample ([6]; 25° C., 24 hours, hydrochloride): 6.33 | solubility at 24 h ([6]; read-out: Aqueous solubility (as the hydrochloride)): 2100 µg/mL | solubility at 24 h ([6]; read-out: Aqueous solubility (free base equivalent)): 1700 µg/mL | pKa ([7]; MeOH:H2O mixtures, extrapolated to 0% co-solvent, potentiometric determination in MeOH/water, Yasuda-Shedlovsky extrapolation, read-out: pKa (basic)): 8.64 | pKa ([7]; aqueous solution, UV spectroscopy (D-PAS attachment), read-out: pKa of second basic centre): 0.81

Cc1cc2c(-c3ccccc3F)nc(N3CCNCC3)nc2s1.Cl [Form III, 4-(2-fluorophenyl)-6-methyl-2-(piperazin-1-yl)thieno[2,3-d]pyrimidine hydrochloride]
Temperature of conversion into Form II [8]: 200-220 °C
